Patent US20250100996A1, “HETEROCYCLOALKYL AND HETEROARYL COMPOUNDS AND PHARMACEUTICAL COMPOSITIONS THAT MODULATE IKZF2” (Plexium, Inc., priority 2021, published 2025)

Key:
[1] = target: T1, GSPT1 (Homo sapiens, UniProt P15170); assay: GSPT1 reporter degradation assay (HEK293 hGSPT1 HiBiT-tagged cells); format: cell-based; details: 24 hour incubation
T1 construct: HiBiT-tagged cells were generated using CRISPR-Cas12a technology; endogenous in cells; host or cells: HEK293 (endogenous GSPT1 locus edited with HiBiT knock-in)
T1 sequence (Q96SW2 whole entry partner): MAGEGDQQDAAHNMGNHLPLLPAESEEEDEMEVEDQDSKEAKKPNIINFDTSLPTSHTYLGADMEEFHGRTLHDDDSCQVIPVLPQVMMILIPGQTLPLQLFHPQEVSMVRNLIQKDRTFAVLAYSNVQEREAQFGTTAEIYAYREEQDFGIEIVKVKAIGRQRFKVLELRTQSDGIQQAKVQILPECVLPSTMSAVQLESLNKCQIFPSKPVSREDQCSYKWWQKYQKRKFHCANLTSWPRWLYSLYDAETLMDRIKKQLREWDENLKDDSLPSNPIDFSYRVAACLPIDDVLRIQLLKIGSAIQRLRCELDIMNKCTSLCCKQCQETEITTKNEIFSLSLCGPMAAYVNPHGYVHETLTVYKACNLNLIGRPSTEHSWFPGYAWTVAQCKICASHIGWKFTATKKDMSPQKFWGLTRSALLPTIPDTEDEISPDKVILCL
T1 sequence (Q16531 whole entry partner): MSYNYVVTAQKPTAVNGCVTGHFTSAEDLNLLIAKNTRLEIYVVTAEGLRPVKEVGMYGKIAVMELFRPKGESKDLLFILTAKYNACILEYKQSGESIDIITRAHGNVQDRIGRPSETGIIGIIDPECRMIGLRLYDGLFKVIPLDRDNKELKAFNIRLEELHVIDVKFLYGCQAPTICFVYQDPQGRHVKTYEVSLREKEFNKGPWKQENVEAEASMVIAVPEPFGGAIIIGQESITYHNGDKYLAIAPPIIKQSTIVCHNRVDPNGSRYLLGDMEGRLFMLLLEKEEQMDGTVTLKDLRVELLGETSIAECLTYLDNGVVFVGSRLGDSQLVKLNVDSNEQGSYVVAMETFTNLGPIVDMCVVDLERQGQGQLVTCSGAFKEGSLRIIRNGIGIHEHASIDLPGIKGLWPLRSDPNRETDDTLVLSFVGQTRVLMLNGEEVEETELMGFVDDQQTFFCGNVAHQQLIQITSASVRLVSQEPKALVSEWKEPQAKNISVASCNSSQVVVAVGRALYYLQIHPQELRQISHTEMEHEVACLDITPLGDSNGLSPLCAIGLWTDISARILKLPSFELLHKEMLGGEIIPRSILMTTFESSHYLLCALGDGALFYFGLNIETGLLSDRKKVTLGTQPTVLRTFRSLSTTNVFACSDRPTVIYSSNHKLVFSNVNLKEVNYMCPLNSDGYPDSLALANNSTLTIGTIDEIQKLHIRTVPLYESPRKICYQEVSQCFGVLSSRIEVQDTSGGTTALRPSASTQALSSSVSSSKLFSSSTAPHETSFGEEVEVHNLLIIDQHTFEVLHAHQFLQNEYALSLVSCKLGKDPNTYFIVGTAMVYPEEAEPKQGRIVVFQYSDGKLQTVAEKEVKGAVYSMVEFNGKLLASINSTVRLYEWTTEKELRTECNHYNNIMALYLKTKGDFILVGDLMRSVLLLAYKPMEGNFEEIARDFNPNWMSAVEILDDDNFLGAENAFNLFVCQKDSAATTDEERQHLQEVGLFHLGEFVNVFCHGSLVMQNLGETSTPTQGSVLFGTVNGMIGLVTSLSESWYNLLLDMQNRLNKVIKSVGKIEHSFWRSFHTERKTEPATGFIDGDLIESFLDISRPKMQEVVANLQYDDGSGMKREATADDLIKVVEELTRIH
T1 sequence (P15170 whole entry): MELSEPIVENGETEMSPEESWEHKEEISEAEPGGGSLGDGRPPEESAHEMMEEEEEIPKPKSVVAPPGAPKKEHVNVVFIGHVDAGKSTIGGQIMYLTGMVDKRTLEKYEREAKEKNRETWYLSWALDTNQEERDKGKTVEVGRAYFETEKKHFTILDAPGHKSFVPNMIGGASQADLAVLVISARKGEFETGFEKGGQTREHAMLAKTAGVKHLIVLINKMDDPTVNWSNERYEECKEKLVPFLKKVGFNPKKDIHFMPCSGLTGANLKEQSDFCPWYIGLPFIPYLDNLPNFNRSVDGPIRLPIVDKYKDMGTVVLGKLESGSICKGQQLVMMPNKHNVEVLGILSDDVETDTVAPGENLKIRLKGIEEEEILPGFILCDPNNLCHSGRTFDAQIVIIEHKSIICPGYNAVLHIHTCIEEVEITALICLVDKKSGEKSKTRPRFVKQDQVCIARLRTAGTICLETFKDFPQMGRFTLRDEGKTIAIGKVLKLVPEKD
Protocol: HEK293_hGSPTl_HiBiT-tagged cells were generated using CRISPR-Cas12a technology. Briefly, ˜400,000 HEK293 cells were transiently co-transfected with precomplexed ribonuclear proteins (RNPs) consisting of 80 pmol of crRNA (IDT), 62 pmol of Cas12a protein (IDT), 3 μg of ssODN donor (IDT; Alt® modifications), 78 pmol of electroporation enhancer (IDT), and 200 ng of pMaxGFP (Lonza). The transfection was performed via nucleofection (Lonza, 4D-Nucleofector X-unit) using solution P3 and program CM-130 in a ([…]) cuvette. Five days post-nucleofection, cells were single-cell-sorted for GFP+(transfected) cells by FACs in 96-well plates and clonally selected. Clones were screened and verified for the desired modification via targeted deep sequencing using gene-specific primers with partial Illumina adapter overhangs as previously described. In brief, clonal cell pellets were harvested, lysed, and used to generate gene-specific amplicons with partial Illumina adapters in PCR #1. Amplicons were indexed in PCR #2 and pooled with other targeted amplicons for other loci to create sequence diversity. Additionally, 10% PhiX sequencing control V3 (Illumina) was added to the pooled amplicon library prior to running the sample on a Miseq Sequencer System (Illumina) to generate paired 2×250 bp reads. Samples were demultiplexed using the index sequences, fastq files were generated, and NGS analysis was performed using CRIS.py. Final clones were authenticated using the PowerPlex fusion system (Promega) and tested negative for mycoplasma by the MycoAlertTMPlus mycoplasma detection kit (Lonza).
Editing construct sequences and screening primers are outlined below (sequence from 5′ to 3′). hGSPT1Cas12acrRNA, CAGE635.GSPT1.g1: […]; CAGE635.g1.anti.ssODN: ttcctcacagtattgtgcagggtcatcaagaaaatgctta[…] CAGCCGCTCACgtcCttctctggaaccagtttcagaacttttccaattgcaatggtcttacctagaaatgaaattttaa (HiBiT tag and silent blocking modifications to prevent Cas12a recutting after integration are in upper case); CAGE635.hGSPT1.DS.F: […]; CAGE635.hGSPT1.DS.R: GTGAA GTAGGCTTCTGCAGTC.
The GSPT1 degradation assay was carried out by harvesting the HEK 293T reporter cell lines and resuspending the cells in media formulated for reduced background fluorescence (FluoroBrite; Thermo Fisher). The respective cell lines were seeded at a density of 8,000 cells/well into white-opaque 384-well optical grade assay tissue culture plates (Greiner 781080-20). The cells were incubated overnight at 37° C. to allow for attachment to the assay plate. Dilutions of the compounds were prepared in DMSO from 10 mM compound stocks. Test compounds were added in a 10-point dilution series (typically 10 μM to 100 pM) using a TECAN D300e Digital Dispenser with an upper limit of 0.5% final DMSO. Plates were centrifuged at 320×g for 2 minutes at room temperature, and subsequently incubated at 37° C.
After 24 hour incubation with the compounds, the plates were allowed to cool to room temperature for 10 minutes. 30 μL of HiBiT lytic buffer+1:50 HiBiT substrate Solution were added to each well. Plates were centrifuged at 320×g for 2 minutes at room temperature and then incubated with shaking at room temperature for 10 minutes covered with foil. Plates were read on a CLARIOstar microplate reader (BMG LabTech), measuring at 450 nm (donor emission) and 610 nm or 630 nm (acceptor emission). The DC50 values were determined by regression to best fit four-parameter logistic curves using GraphPad Prism.

[2] = target: T2, human E3 ligase component cereblon (CRBN) (Homo sapiens, UniProt Q96SW2); assay: Cereblon (CRBN) target engagement, NanoBRET TE Intracellular E3 Ligase Assay in transfected HEK-293T cells; details: read-out: CRBN Binding EC50
T2 construct: host or cells: HEK293T
T2 sequence (Q96SW2 whole entry): as the sequence (Q96SW2 whole entry partner) above
T2 sequence (Q16531 whole entry partner): as the sequence (Q16531 whole entry partner) above
Procedure, shortened: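 HEK-293T cells transiently co-transfected with NanoLuc-CRBN (N-terminal NanoLuc) and DDB1 were dosed with CRBN tracer and an 11-point compound series (typically 10 μM to 100 pM) for 2 h at 37° C. BRET at 450/610 nm gave IC50 by four-parameter logistic fit.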

[3] = target: T3, IKZF3 (Aiolos) (Homo sapiens, UniProt Q9UKT9); assay: IKZF3 reporter degradation assay (HEK 293T IKZF3-mNeonGreen reporter cell line); format: cell-based; details: HEK 293T IKZF3-mNeonGreen reporter, 24 hours incubation
T3 construct: Leu-Asp junction (codons ctcgac before the linker); mScarlet (behind P2A) (C, cleaved yes); expressed in transfected cells
T3 sequence (Q96SW2 whole entry partner): as the sequence (Q96SW2 whole entry partner) above
T3 sequence (Q16531 whole entry partner): as the sequence (Q16531 whole entry partner) above
T3 sequence (Q9UKT9 whole entry): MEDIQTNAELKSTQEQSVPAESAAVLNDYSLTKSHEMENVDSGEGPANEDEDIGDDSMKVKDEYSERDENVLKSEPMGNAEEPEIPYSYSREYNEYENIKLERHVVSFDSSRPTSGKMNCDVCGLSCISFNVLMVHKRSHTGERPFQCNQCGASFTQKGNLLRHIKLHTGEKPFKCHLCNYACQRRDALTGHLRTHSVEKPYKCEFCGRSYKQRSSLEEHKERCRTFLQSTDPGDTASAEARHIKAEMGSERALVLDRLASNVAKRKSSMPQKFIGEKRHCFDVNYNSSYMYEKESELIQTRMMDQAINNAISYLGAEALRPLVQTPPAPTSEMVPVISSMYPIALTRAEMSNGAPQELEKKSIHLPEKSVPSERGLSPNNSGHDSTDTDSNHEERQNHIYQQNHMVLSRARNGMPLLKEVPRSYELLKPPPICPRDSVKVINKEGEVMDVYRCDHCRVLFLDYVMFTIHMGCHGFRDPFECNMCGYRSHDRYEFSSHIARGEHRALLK
Procedure, shortened: (§1)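 HEK 293T, stable IKZF1/2/3-mNeonGreen + P2A-mScarlet; cpd 24 h, 37 °C, max 0.5% DMSO, n=4 wells; FITC/TRITC imaging, % positive; DC50 by 4PL fit.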

[4] = target: T4, IKZF2 (Helios) (Homo sapiens, UniProt Q96SW2+Q9UKS7); assay: IKZF2 reporter degradation assay (HEK 293T IKZF2-mNeonGreen reporter cell line); format: cell-based; details: HEK-293T, 24 h, @ 1 μM, HEK 293T IKZF2-mNeonGreen reporter, 24 hours incubation
T4 construct: Leu-Asp junction (codons ctcgac before the linker); mScarlet (behind P2A) (C, cleaved yes); expressed in transfected cells
T4 sequence (Q9UKS7 whole entry): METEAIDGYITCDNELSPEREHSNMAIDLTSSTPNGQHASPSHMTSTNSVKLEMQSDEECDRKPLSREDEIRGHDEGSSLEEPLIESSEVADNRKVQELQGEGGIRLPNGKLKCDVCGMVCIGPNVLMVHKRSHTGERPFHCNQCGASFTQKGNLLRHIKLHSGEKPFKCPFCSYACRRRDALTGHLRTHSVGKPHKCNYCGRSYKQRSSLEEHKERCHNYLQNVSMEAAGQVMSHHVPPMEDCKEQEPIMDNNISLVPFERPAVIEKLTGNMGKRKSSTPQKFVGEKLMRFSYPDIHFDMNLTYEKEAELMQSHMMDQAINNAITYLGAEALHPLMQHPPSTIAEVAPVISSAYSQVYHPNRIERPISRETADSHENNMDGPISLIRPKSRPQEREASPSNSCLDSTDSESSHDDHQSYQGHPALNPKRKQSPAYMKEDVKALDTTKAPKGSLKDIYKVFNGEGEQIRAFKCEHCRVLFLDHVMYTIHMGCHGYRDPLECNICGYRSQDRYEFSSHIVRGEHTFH
T4 sequence (Q96SW2 whole entry): as the sequence (Q96SW2 whole entry partner) above
T4 sequence (Q16531 whole entry partner): as the sequence (Q16531 whole entry partner) above
Procedure, shortened: as §1

[5] = target: T5, IKZF2 (Helios) (Homo sapiens, UniProt Q9UKS7); assay: as above; format: cell-based; details: HEK 293T IKZF2-mNeonGreen reporter, 24 hours incubation
T5 construct: Leu-Asp junction (codons ctcgac before the linker); mScarlet (behind P2A) (C, cleaved yes); expressed in transfected cells
T5 sequence (Q9UKS7 whole entry): as the sequence (Q9UKS7 whole entry) above
T5 sequence (Q96SW2 whole entry, further chain): as the sequence (Q96SW2 whole entry partner) above
T5 sequence (Q16531 whole entry partner): as the sequence (Q16531 whole entry partner) above
Procedure, shortened: as §1

[6] = target: T6, IKZF1 (Ikaros) (Homo sapiens, UniProt Q13422); assay: IKZF1 reporter degradation assay (HEK 293T IKZF1-mNeonGreen reporter cell line); format: cell-based; details: HEK 293T IKZF1-mNeonGreen reporter, 24 hours incubation
T6 construct: mScarlet (behind P2A) (C, cleaved yes); expressed in transfected cells
T6 sequence (Q96SW2 whole entry partner): as the sequence (Q96SW2 whole entry partner) above
T6 sequence (Q16531 whole entry partner): as the sequence (Q16531 whole entry partner) above
T6 sequence (Q13422 whole entry): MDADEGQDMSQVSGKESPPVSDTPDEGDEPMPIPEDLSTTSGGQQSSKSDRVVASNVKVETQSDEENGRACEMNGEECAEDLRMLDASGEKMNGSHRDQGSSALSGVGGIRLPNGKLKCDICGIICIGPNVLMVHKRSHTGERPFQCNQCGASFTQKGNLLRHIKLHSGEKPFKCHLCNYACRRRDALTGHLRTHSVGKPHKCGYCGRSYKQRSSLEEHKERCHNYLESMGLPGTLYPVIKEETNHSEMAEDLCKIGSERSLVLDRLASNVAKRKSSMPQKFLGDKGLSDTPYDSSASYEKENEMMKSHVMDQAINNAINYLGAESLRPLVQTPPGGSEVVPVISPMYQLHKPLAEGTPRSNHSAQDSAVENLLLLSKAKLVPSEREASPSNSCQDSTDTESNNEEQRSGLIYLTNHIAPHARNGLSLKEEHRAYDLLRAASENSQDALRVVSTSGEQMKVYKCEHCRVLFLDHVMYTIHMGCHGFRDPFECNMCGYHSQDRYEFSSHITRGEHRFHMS
Procedure, shortened: as §1

Structure (SMILES)	DC50 [1] [nM]	EC50 [2] [nM]	DC50 [3] [nM]	inhibition at 1 µM [4] [%]	DC50 [5] [nM]	DC50 [6] [nM]	inhibition at 1 µM ([3]; HEK-293T, 24 h, @ 1 μM) [%]
Cc1cnc(C2CN([C@H]3CCCC3Oc3ccc4c(c3)CN(C3CCC(=O)NC3=O)C4=O)C2)o1 (mixture of isomers) [Compound 151-B, Rac-3-(5-(((trans)-2-(3-(5-methyloxazol-2-yl)azetidin-1-yl)cyclopentyl)oxy)-1-oxoisoindolin-2-yl)piperidine-2,6-dione]	> 30000	79					
O=C1CCC(N2Cc3cc(OC4CCCCC4N4CC(c5ccnc6[nH]ccc56)C4)ccc3C2=O)C(=O)N1 (stereo not shown) [Compound 199-B, 3-(5-((2-(3-(1H-pyrrolo[2,3-b]pyridin-4-yl)azetidin-1-yl)cyclohexyl)oxy)-1-oxoisoindolin-2-yl)piperidine-2,6-dione]		21	> 30000	75	14	> 30000	
O=C1CCC(N2Cc3cc(O[C@@H]4CCC[C@@H]4N4CC(c5ccnc6ccccc56)C4)ccc3C2=O)C(=O)N1 (stereo partly drawn) [Compound 194-B, 3-(1-oxo-5-(((1R,2S)-2-(3-(quinolin-4-yl)azetidin-1-yl)cyclopentyl)oxy)isoindolin-2-yl)piperidine-2,6-dione]		17	283	79.8	7	> 30000	26.6

Other lines, results leading:

DC50 [1] [nM]	EC50 [2] [nM]	DC50 [3] [nM]	inhibition at 1 µM [4] [%]	DC50 [5] [nM]	DC50 [6] [nM]	inhibition at 1 µM ([3]; HEK-293T, 24 h, @ 1 μM) [%]	Structure (SMILES)
> 30000							O=C1CCC(N2Cc3cc(OC4CCCCC4N4CC(C(=O)N5CCCCC5)C4)ccc3C2=O)C(=O)N1 (single isomer, unassigned) [Compound 23-A, 3-(1-oxo-5-((2-(3-(piperidine-1-carbonyl)azetidin-1-yl)cyclohexyl)oxy)isoindolin-2-yl)piperidine-2,6-dione]
	104	> 30000	24.8	1470	> 30000		O=C1CCC(N2Cc3cc(OC4CCC[C@@H]4N4CC(c5cccnc5)C4)ccc3C2=O)C(=O)N1 (mixture of isomers) [Compound 207-B, Rac-3-(1-oxo-5-(((cis)-2-(3-(pyridin-3-yl)azetidin-1-yl)cyclopentyl)oxy)isoindolin-2-yl)piperidine-2,6-dione]
